From patent US11578079B2, “SUMO inhibitor compounds and uses thereof” (CITY OF HOPE, priority 2018, dated 2023) come the findings set out here.

In one assay the target is T1, SUMO (Homo sapiens, UniProt Q9UBT2).
T1 sequence (Q9UBT2 1-640): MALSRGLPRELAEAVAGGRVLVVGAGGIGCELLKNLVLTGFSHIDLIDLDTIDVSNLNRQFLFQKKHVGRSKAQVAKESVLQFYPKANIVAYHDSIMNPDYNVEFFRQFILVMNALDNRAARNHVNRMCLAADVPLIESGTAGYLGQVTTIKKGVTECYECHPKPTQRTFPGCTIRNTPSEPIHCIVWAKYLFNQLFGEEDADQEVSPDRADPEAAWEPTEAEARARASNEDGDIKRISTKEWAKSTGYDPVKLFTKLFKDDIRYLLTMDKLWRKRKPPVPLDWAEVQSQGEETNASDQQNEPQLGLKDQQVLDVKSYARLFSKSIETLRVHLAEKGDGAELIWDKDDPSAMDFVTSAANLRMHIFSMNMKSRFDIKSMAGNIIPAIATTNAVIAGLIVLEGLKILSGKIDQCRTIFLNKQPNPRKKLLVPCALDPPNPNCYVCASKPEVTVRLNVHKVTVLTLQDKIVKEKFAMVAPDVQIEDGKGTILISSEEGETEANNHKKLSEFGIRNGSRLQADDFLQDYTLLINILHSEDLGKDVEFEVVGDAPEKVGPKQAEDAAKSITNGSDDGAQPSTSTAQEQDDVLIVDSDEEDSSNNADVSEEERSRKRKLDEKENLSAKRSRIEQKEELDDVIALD
T1 sequence (Q9UBE0 1-346 partner): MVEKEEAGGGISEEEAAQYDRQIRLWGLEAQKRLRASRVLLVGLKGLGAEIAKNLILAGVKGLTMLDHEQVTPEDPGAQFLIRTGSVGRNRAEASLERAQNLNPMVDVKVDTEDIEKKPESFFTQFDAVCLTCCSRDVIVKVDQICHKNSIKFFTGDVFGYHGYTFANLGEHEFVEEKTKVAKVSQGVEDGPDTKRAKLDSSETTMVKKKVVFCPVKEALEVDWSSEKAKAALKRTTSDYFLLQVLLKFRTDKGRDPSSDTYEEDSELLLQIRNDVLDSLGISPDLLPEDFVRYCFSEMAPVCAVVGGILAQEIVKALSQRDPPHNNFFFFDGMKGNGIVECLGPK
Put plainly: SUMO activity (Table I, biological activities). The assay is classed as biochemical. Also on record: key: + (less active); ++ (active); +++ (most active).

Another assay deals with T2, Atg7 (Homo sapiens, UniProt O95352).
T2 sequence (O95352 1-703): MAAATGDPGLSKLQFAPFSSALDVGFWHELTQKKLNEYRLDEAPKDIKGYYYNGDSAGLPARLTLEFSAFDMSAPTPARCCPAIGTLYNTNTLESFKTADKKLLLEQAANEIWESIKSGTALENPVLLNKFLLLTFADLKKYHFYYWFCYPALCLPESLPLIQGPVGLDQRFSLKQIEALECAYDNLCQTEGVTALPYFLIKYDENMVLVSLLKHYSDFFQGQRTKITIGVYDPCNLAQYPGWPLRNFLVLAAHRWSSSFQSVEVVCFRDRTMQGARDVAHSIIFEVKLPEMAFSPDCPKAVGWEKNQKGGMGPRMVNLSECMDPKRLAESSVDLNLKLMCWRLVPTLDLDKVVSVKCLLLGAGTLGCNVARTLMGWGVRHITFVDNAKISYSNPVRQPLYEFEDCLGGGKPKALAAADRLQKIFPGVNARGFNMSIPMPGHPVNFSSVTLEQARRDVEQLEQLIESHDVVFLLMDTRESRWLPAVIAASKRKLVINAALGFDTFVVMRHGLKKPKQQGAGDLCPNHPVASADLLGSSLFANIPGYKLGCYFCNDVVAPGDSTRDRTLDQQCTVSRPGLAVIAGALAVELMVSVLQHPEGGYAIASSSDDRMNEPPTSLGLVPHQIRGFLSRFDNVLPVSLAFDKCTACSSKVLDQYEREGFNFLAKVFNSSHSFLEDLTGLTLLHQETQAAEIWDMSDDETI
In words: Atg7 activity (Table I, biological activities). The format is biochemical. Also on record: key: + (less active); ++ (active); +++ (most active).

In the next assay the test system is c-Myc. Put plainly: c-Myc activity (Table I, biological activities). Also on record: key: + (less active); ++ (active); +++ (most active).
Assay [1] has as its system cancer stem cell (CSC) populations in patient derived xenograft (PDX) models. In words: Limited dilution assays of cancer stem cell populations in PDX models (FIG. 1). The format is cell-based. As to conditions: 1 μM to 10 μM. The source says: FIG. 1. Examination of the effect of compounds 582 and 588 to reduce cancer stem cell (CSC) populations in patient derived xenograft (PDX) models using limited dilution assays.

The target in the next assay is T3, Nedd8 (Homo sapiens, UniProt Q8TBC4).
T3 sequence (Q8TBC4 1-463): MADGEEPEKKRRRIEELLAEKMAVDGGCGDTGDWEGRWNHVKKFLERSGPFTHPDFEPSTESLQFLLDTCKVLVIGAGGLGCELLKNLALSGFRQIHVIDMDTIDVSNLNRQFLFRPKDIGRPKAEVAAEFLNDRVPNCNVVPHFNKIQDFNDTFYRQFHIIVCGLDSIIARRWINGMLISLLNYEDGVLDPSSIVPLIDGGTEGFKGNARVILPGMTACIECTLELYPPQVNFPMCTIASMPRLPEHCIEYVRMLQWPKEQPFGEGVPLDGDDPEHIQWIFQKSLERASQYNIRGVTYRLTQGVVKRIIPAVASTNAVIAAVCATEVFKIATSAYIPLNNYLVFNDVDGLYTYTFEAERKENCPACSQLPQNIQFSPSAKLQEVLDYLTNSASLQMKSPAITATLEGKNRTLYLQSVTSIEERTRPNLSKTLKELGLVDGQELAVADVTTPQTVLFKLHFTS
T3 sequence (Q13564 1-534 partner): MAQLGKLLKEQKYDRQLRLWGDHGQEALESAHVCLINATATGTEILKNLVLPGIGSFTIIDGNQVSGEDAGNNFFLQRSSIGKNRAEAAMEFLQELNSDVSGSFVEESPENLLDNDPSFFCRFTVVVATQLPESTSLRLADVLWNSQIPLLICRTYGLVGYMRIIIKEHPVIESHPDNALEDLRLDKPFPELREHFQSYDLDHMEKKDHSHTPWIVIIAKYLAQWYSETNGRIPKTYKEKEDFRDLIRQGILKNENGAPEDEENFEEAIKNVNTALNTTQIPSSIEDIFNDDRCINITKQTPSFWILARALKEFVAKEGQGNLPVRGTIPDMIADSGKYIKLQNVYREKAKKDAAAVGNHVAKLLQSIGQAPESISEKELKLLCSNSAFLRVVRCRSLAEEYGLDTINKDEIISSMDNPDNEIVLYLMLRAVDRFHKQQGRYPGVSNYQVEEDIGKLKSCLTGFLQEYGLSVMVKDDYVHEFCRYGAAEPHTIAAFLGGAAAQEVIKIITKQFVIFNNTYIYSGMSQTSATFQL
In words: Nedd8 activity (Table I, biological activities). The assay is classed as biochemical. Also on record: key: + (less active); ++ (active); +++ (most active).

The next assay concerns the target T4, Ubiquitin (Homo sapiens, UniProt P22314).
T4 sequence (P22314 1-1058): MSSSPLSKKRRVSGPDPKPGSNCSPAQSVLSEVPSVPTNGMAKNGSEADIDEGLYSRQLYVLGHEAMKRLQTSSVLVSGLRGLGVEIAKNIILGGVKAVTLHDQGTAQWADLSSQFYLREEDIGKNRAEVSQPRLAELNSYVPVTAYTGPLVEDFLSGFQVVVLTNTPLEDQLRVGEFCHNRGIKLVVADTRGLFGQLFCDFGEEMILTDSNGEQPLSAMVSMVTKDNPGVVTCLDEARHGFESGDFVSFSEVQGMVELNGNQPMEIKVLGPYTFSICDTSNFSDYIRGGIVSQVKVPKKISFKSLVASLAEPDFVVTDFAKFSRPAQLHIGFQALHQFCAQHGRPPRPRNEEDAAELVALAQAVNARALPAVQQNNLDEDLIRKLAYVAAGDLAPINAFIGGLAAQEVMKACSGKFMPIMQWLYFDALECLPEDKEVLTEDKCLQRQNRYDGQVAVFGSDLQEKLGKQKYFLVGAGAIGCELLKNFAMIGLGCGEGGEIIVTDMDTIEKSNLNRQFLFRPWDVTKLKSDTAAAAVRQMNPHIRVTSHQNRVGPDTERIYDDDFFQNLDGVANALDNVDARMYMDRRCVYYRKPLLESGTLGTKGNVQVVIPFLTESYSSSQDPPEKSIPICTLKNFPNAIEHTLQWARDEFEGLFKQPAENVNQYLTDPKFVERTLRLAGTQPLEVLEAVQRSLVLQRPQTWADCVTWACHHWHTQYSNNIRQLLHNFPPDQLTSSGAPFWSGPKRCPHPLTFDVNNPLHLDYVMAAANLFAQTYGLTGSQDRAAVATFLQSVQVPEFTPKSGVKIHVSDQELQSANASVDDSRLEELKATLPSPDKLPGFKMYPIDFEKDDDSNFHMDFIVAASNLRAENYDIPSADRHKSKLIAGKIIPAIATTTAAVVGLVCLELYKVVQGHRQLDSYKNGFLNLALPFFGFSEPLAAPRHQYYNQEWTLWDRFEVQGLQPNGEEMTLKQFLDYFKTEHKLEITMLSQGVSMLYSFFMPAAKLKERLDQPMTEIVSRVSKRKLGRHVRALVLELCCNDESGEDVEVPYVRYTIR
In words: Ubiquitin activity (Table I, biological activities). Also on record: key: + (less active); ++ (active); +++ (most active). The format is biochemical.

Each structure is given as a SMILES string.

`COC(=O)C1=C(C(=O)NCCN(C)C)C2(C)C=CC1(C(Cc1ccccc1)Nc1ccccc1)O2` (stereo not shown) [Compound 619]: at SUMO, the SUMO result is on record as “++”. The Atg7 result on Atg7 is “+”. Also, in the assay with c-Myc, the c-Myc result was “+”.
Turning to `CCOC(=O)C1=C(C(=O)Nc2c(CC)cccc2CC)C2C=CC1(C(Nc1ccccc1)c1ccc(CN3CCOCC3)cc1)O2` (stereo not shown) [Compound 588], the SUMO entry on SUMO was “++”. Also, the c-Myc entry with c-Myc is listed as “++”. Besides, the “inhibition on PDX cancer-initiating-cell (CIC) frequency” value in assay [1] was “only showed inhibition on CIC at high dose 10 μM”.
Regarding `COC(=O)C1=C(C(=O)NCCN(C)C)C2C=CC1(C(Cc1ccccc1)Nc1cccc(CO)c1)O2` (stereo not shown) [Compound 535], the SUMO result on SUMO is “+++”. For the same compound, the Nedd8 result at Nedd8 is “++”. Moreover, the Ubiquitin result at Ubiquitin is “+”. In addition, the c-Myc result with c-Myc was “++”.
Take `COC(=O)C1=C(C(=O)Nc2ccc(OCCN(C)C)cc2)C2OC1(C(Cc1ccccc1)Oc1ccccc1)C1OC21` (stereo not shown) [Compound 534]: the SUMO entry at SUMO is “+”. At Nedd8, the Nedd8 entry is “++”. The Ubiquitin result at Ubiquitin was “+”. Further, the c-Myc result in the assay with c-Myc was “++”.
As for `COC(=O)C1=C(C(=O)NCCN2CCN(C)CC2)C2C=CC1(C(Cc1ccccc1)Nc1ccccc1)O2` (stereo not shown) [Compound 463], at SUMO, the SUMO result is “++”. At Atg7, the Atg7 result is reported as “++”. Moreover, the c-Myc result with c-Myc is given as “++”.
Regarding `COC(=O)C1=C(C(=O)Nc2ccc(CN(C)C)cc2)C2OC1(C(Cc1ccccc1)Oc1ccccc1)C1OC21` (stereo not shown) [Compound 545], the SUMO entry on SUMO is given as “++”. Moreover, the Ubiquitin entry on Ubiquitin was “+”. Further, the c-Myc entry in the assay on c-Myc is listed as “++”.
For `COC(=O)C1=C(CO)C2C=CC1(C(Cc1ccccc1)Oc1ccccc1)O2` (stereo not shown) [Compound 584], the SUMO entry at SUMO is listed as “+”. Moreover, the Atg7 result on Atg7 is recorded as “++”. Besides, in the assay with c-Myc, the c-Myc entry was “++”.
As for `COC(=O)C1=C(C(N)=O)C2C=CC1(C(Cc1ccccc1)Nc1cccc(CO)c1)O2` (stereo not shown) [Compound 536], the SUMO entry at SUMO was “++”. Also, the Nedd8 result at Nedd8 is given as “++”. The Ubiquitin entry on Ubiquitin is “+”.
With `CCOC(=O)C1=CC2OC1(C(c1ccccc1)N(C(=O)C(F)(F)F)c1ccccc1)c1ccccc12` (stereo not shown) [Compound 585], the SUMO entry on SUMO was “+”. In addition, the Atg7 entry on Atg7 is reported as “+”. Moreover, the c-Myc entry in the assay on c-Myc was “++”.
Turning to `CCOC(=O)C1=C(C(=O)Nc2c(C)cccc2C)C2C=CC1(C(Nc1ccccc1)c1ccc(CN3CCOCC3)cc1)O2` (stereo not shown) [Compound 582], the SUMO result at SUMO is listed as “++”. Also, in the assay with c-Myc, the c-Myc entry is given as “++”. Further, in assay [1], the “inhibition on PDX cancer-initiating-cell (CIC) frequency” value was “dose-dependent inhibition on PDX cancer-initiating-cell (CIC) frequency, even at 1 μM”.
In the case of `COC(=O)C1=C(CO)C2(C)C=CC1(C(Cc1ccccc1)Oc1ccccc1)O2` (stereo not shown) [Compound 626], the SUMO entry on SUMO was “+”. In addition, the Atg7 result at Atg7 is given as “++”.
Turning to `COC(=O)C1=C(C(=O)NCCN2CCCCC2)C2C=CC1(C(Cc1ccccc1)Nc1ccccc1)O2` (stereo not shown) [Compound 462], the SUMO result on SUMO is “++”. Also, at Atg7, the Atg7 entry was “++”. Also, the c-Myc entry with c-Myc is “++”.
